The values that follow come from ChEMBL document CHEMBL1151023, “1,1-Dicyano-2-substituted ethylenes: A new class of glucose uptake inhibitors in antifilarial chemotherapy” (1997).

Assay type in all cases: functional
Assay [1] concerns Mastomys coucha. Put plainly: Tested for in vivo antifilarial activity against Acanthocheilonema viteae microfilariae infection in Mastomys coucha at 50 mg/kgx 5 days after ip administration, expressed as % reduction in parasite load. To be noted: dose 50 mg/kg; route intraperitoneal.
In assay [2] the test system is Acanthocheilonema viteae. Put plainly: Effect of compound on glucose uptake in Acanthocheilonema viteae at 10 uM concentration(p<0.005).
For assay [3], the system named is Acanthocheilonema viteae. Put plainly: Effect of compound on ATP content in Acanthocheilonema viteae at 10 uM concentration (p<0.005).
For assay [4], the system named is Acanthocheilonema viteae. As to the kind of experiment: Effect of compound on lactate produced in Acanthocheilonema viteae at 10 uM concentration(p<0.005).
For assay [5], the system named is Mastomys coucha. Put plainly: Tested for in vivo antifilarial activity against Acanthocheilonema viteae macrofilariae infection in Mastomys coucha at 50 mg/kgx 5 days after ip administration, expressed as % reduction in parasite load. Conditions: dose 50 mg/kg; route intraperitoneal.
The subject of assay [6] is Acanthocheilonema viteae. As to the kind of experiment: Effect of compound on lactate produced in Acanthocheilonema viteae at 10 uM concentration (p<0.05).
Assay [7] relates to Acanthocheilonema viteae. Put plainly: Effect of compound on glucose uptake in Acanthocheilonema viteae at 10 uM concentration (p<0.05).
In assay [8] the test system is Acanthocheilonema viteae. As to the kind of experiment: Effect of compound on ATP content in Acanthocheilonema viteae at 10 uM concentration (p>0.05).
For assay [9], the system named is Acanthocheilonema viteae. Put plainly: Effect of compound on glucose uptake in Acanthocheilonema viteae at 10 uM concentration (p>0.05).
In assay [10] the test system is Acanthocheilonema viteae. As to the kind of experiment: Effect of compound on lactate produced in Acanthocheilonema viteae at 10 uM concentration (p>0.05).
For assay [11], the system named is Acanthocheilonema viteae. Put plainly: Effect of compound on glucose uptake in Acanthocheilonema viteae at 10 uM concentration (p<0.005).
Assay [12] deals with Acanthocheilonema viteae. As to the kind of experiment: Effect of compound on lactate produced in Acanthocheilonema viteae at 10 uM concentration (p<0.005).
Assay [13] has as its system Mastomys coucha. As to the kind of experiment: Tested for in vivo antifilarial activity against Litomosoides carinii macrofilariae infection in Mastomys coucha at 30 mg/kgx 5 days after ip administration, expressed as % reduction in parasite load with 30% sterilization of female worms. Conditions: dose 30 mg/kg; route intraperitoneal.
Assay [14] deals with Mastomys coucha. As to the kind of experiment: Tested for in vivo antifilarial activity against Litomosoides carinii microfilariae infection in Mastomys coucha at 30 mg/kgx 5 days after ip administration, expressed as % reduction in parasite load with 30% sterilization of female worms. Conditions: dose 30 mg/kg; route intraperitoneal.
Assay [15] relates to Acanthocheilonema viteae. As to the kind of experiment: Effect of compound on lactate produced in Acanthocheilonema viteae at 10 uM concentration(p>0.05).
Assay [16] concerns Mastomys coucha. Put plainly: Tested for in vivo antifilarial activity against Litomosoides carinii macrofilariae infection in Mastomys coucha at 350 mg/kgx 5 days after ip administration, expressed as % reduction in parasite load. To be noted: dose 350 mg/kg; route intraperitoneal.
Assay [17] has as its system Mastomys coucha. As to the kind of experiment: Tested for in vivo antifilarial activity against Litomosoides carinii macrofilariae infection in Mastomys coucha at 6 mg/kgx 5 days after ip administration, expressed as % reduction in parasite load. To be noted: dose 6 mg/kg; route intraperitoneal.
For assay [18], the system named is Mastomys coucha. As to the kind of experiment: Tested for in vivo antifilarial activity against Litomosoides carinii microfilariae infection in Mastomys coucha at 350 mg/kgx 5 days after ip administration, expressed as % reduction in parasite load. Conditions: dose 350 mg/kg; route intraperitoneal.
The test system of assay [19] is Mastomys coucha. As to the kind of experiment: Tested for in vivo antifilarial activity against Litomosoides carinii microfilariae infection in Mastomys coucha at 6 mg/kgx 5 days after ip administration, expressed as % reduction in parasite load. To be noted: dose 6 mg/kg; route intraperitoneal.
Assay [20] has as its system Mastomys coucha. As to the kind of experiment: Tested for in vivo antifilarial activity against A. viteae microfilariae infection in Mastomys coucha at 50 mg/kgx 5 days after ip administration, expressed as % reduction in parasite load. Conditions: dose 50 mg/kg; route intraperitoneal.

As to `N#CC(C#N)=CNc1ccc(F)cc1`, the results for the Reduction in the assay with Mastomys coucha [1] and in the assay with Mastomys coucha [5] were 91% and 0%, respectively. Also, the Glucose uptake with Acanthocheilonema viteae [2] is 56 nM/h (mg of worm). For the same compound, the ATP content in the assay on Acanthocheilonema viteae [3] is 16.9 pM (mg of protein)-1. The Lactate produced with Acanthocheilonema viteae [4] was 222 nM/h (mg of worm).

As for `N#CC(C#N)=CN1CCN(C=C(C#N)C#N)CC1`, the values for the Reduction with Mastomys coucha [1] and with Mastomys coucha [5] were 0% and 81%, respectively. In addition, the Lactate produced with Acanthocheilonema viteae [6] was 258 nM/h (mg of worm). For the same compound, the ATP content in the assay on Acanthocheilonema viteae [3] is on record as 25.7 pM (mg of protein)-1. Besides, the Glucose uptake in the assay on Acanthocheilonema viteae [7] is 327 nM/h (mg of worm).

In the case of `N#CC(C#N)=CN(CCO)CCO`, the ATP content in the assay on Acanthocheilonema viteae [8] was 49.3 pM (mg of protein)-1. Further, the results for the Reduction with Mastomys coucha [1] and with Mastomys coucha [5] were 76% and 0%, respectively. For the same compound, in the assay on Acanthocheilonema viteae [9], the Glucose uptake was 204 nM/h (mg of worm). Besides, the Lactate produced in the assay on Acanthocheilonema viteae [10] was 405 nM/h (mg of worm).

Regarding `N#CC(C#N)=CN1CCN(c2ccccn2)CC1`, the Glucose uptake with Acanthocheilonema viteae [11] is 105 nM/h (mg of worm). Further, the Lactate produced in the assay with Acanthocheilonema viteae [12] was 157 nM/h (mg of worm). In addition, the Reduction in the assay on Mastomys coucha [13] and in the assay on Mastomys coucha [14] was 60% in each case. Also, in the assay with Acanthocheilonema viteae [3], the ATP content was 37.1 pM (mg of protein)-1.

Turning to `CCN(CC)C(=O)N1CCN(C)CC1.O=C(O)CC(O)(CC(=O)O)C(=O)O` [DIETHYLCARBAMAZINE CITRATE], in the assay with Acanthocheilonema viteae [8], the ATP content is listed as 55.6 pM (mg of protein)-1. Besides, the Lactate produced in the assay on Acanthocheilonema viteae [15] was 461 nM/h (mg of worm). Besides, the Glucose uptake in the assay on Acanthocheilonema viteae [9] is 256 nM/h (mg of worm). Moreover, the Reduction turned out to be 0% with Mastomys coucha [16], 0% in the assay with Mastomys coucha [17], 90% in the assay with Mastomys coucha [18] and 98% with Mastomys coucha [19].

In the case of `N#CC(C#N)=CNc1ccccc1`, the ATP content with Acanthocheilonema viteae [8] is 53.5 pM (mg of protein)-1. For the same compound, the Glucose uptake in the assay on Acanthocheilonema viteae [9] was 189 nM/h (mg of worm). The Lactate produced in the assay with Acanthocheilonema viteae [10] is 443 nM/h (mg of worm). The Reduction is listed as 47% in the assay with Mastomys coucha [20] and 0% in the assay with Mastomys coucha [5].

On to `N#CC(C#N)=CNCCO`, for which the ATP content in the assay with Acanthocheilonema viteae [8] is 47.8 pM (mg of protein)-1. Further, the Reduction with Mastomys coucha [1] is on record as 82%; in the assay with Mastomys coucha [5] it was 0%. Further, the Lactate produced with Acanthocheilonema viteae [10] was 343 nM/h (mg of worm). In addition, in the assay with Acanthocheilonema viteae [7], the Glucose uptake is 164 nM/h (mg of worm).
